These molecules were tested against T1, nuclear factor-kappa B (NF-kB)-inducing kinase (NIK) (Homo sapiens, UniProt Q99558) (assay: NIK Enzyme Inhibition Assay (Transcreener ADP assay)). Settings: purified NIK 0.2-1 nM, 10 uM ATP, fluorescence polarization, Morrison's quadratic equation; read-out: inhibitory value (Ki) for NIK.
T1 construct: made in house; host or cells: baculovirus-infected insect cells
Type: biochemical

T1 sequence (Q99558 whole entry): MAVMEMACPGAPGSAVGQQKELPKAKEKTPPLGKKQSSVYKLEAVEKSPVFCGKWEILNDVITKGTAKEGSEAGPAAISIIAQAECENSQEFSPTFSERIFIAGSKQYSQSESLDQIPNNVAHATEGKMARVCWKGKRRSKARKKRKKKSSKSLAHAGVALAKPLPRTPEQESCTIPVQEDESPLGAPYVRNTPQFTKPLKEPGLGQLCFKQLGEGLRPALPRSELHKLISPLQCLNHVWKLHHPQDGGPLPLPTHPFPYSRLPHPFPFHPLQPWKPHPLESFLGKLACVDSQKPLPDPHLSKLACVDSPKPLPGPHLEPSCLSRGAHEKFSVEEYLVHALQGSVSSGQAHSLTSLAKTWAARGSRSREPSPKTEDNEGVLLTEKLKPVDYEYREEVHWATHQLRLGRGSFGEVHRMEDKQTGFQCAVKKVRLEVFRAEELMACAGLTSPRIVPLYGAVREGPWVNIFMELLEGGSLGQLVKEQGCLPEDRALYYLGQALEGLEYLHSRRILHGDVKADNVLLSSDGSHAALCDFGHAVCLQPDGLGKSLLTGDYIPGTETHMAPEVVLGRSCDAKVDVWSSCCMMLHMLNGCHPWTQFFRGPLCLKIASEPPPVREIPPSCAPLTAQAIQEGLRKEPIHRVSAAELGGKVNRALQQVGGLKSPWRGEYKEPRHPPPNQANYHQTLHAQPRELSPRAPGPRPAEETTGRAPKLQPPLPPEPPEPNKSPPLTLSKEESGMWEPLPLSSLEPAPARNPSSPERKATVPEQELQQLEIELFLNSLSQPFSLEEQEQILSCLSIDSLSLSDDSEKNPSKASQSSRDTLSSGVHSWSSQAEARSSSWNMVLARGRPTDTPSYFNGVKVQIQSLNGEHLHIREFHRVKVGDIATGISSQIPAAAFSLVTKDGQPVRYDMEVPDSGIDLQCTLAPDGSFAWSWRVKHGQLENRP

SMILES | Ki
N#Cc1ccc2cnn(-c3nc(N)ncc3[N+](=O)[O-])c2c1 [Example T1-8, 1-(2-amino-5-nitropyrimidin-4-yl)-1H-indazole-6-carbonitrile] | 411 nM
CC(C)(O)C#Cc1ccc2nc(C3CC3)n(-c3ccnc(N)n3)c2c1 [Example T1-17, 4-(1-(2-aminopyrimidin-4-yl)-2-cyclopropyl-1H-benzo[d]imidazol-6-yl)-2-methylbut-3-yn-2-ol] | 2900 nM
COc1ncccc1Nc1ncnc(-n2ncc3ccc(C#CC(C)(C)O)cc32)n1 [Example T1-24, 4-(1-(4-(2-methoxypyridin-3-ylamino)-1,3,5-triazin-2-yl)-1H-indazol-6-yl)-2-methylbut-3-yn-2-ol] | 2100 nM
CN(C)C(=O)c1nn(-c2ccnc(N)n2)c2cc(C#CC(C)(C)O)ccc12 [Example T1-30, 1-(2-aminopyrimidin-4-yl)-6-(3-hydroxy-3-methylbut-1-ynyl)-N,N-dimethyl-1H-indazole-3-carboxamide] | 60 nM
COc1ncccc1Nc1cc(-n2ncc3ccc(C#CC(C)(C)O)cc32)ncn1 [Example T1-31, 4-(1-(6-(2-methoxypyridin-3-ylamino)pyrimidin-4-yl)-1H-indazol-6-yl)-2-methylbut-3-yn-2-ol] | 4600 nM
CN(C)C(=O)c1nn(-c2ccnc(N)n2)c2cc(C#C[C@@](C)(O)c3nccs3)ccc12 [Example T1-46, (R)-1-(2-aminopyrimidin-4-yl)-6-(3-hydroxy-3-(thiazol-2-yl)but-1-ynyl)-N,N-dimethyl-1H-indazole-3-carboxamide] | 0.16 nM
C[C@@](O)(C#Cc1ccc2[nH]c(=O)n(-c3ccnc(N)n3)c2c1)c1nccs1 [Example T1-47, (R)-1-(2-aminopyrimidin-4-yl)-6-(3-hydroxy-3-(thiazol-2-yl)but-1-ynyl)-1H-benzo[d] imidazol-2(3H)-one] | 0.11 nM
Cc1nn(-c2ccnc(N)n2)c2cc(C#C[C@](C)(O)c3nccs3)ccc12 [Example T1-49, (S)-4-(1-(2-aminopyrimidin-4-yl)-3-methyl-1H-indazol-6-yl)-2-(thiazol-2-yl)but-3-yn-2-ol] | 847 nM
Cc1csc(C(C)(O)C#Cc2ccc3c(C)nn(-c4ccnc(N)n4)c3c2)n1 (stereo not shown) [Example T1-51, 4-(1-(2-aminopyrimidin-4-yl)-3-methyl-1H-indazol-6-yl)-2-(4-methylthiazol-2-yl)but-3-yn-2-ol] | 575 nM
Cc1nn(-c2ccnc(N)n2)c2cc(C#CC3(O)CCN(C)CC3)ccc12 [Example T1-69, 4-((1-(2-aminopyrimidin-4-yl)-3-methyl-1H-indazol-6-yl)ethynyl)-1-methylpiperidin-4-ol] | ≥ 5000 nM
CCOc1nc2ccc(C#CC(C)(O)c3cc(C)on3)cc2n1-c1ccnc(N)n1 (stereo not shown) [Example T1-70, 4-(1-(2-aminopyrimidin-4-yl)-2-ethoxy-1H-benzo[d]imidazol-6-yl)-2-(5-methyl-isoxazol-3-yl)but-3-yn-2-ol] | 0.5 nM
Cc1cc([C@](C)(O)C#Cc2ccc3[nH]c(=O)n(-c4ccnc(N)n4)c3c2)no1 [Example T1.1-1, 3-(2-aminopyrimidin-4-yl)-[(3R)-3-hydroxy-3-(5-methyl-isoxazol-3-yl)but-1-ynyl]-1H-benzimidazol-2-one] | 0.1 nM
Cc1nc2ccc(C#C[C@@](C)(O)c3nccs3)cc2n1-c1ncnc(N)n1 [Example T1.1-2, (2R)-4-[3-(4-amino-1,3,5-triazin-2-yl)-2-methyl-benzimidazol-5-yl]-2-thiazol-2-yl-but-3-yn-2-ol] | 0.2 nM
Cc1cc(C(C)(O)C#Cc2ccc3c(C(O)C(C)C)nn(-c4ccnc(N)n4)c3c2)no1 (stereo not shown) [Example T1.1-3, 4-[1-(2-aminopyrimidin-4-yl)-3-(1-hydroxy-2-methyl-pro-pyl)indazol-6-yl]-2-(5-methyl-isoxazol-3-yl)but-3-yn-2-ol] | 0.2 nM
Cc1cc([C@](C)(O)C#Cc2ccc3c(CO)nn(-c4ccnc(N)n4)c3c2)no1 [Example T1.1-4, (2R)-4-[1-(2-aminopyrimidin-4-yl)-3-(hydroxymethyl)indazol-6-yl]-2-(5-methyl-isoxazol-3-yl)but-3-yn-2-ol] | 0.22 nM
Cc1cc([C@](C)(O)C#Cc2ccc3nc(C)n(-c4ncnc(N)n4)c3c2)no1 [Example T1.1-5, (2R)-4-[3-(4-amino-1,3,5-triazin-2-yl)-2-methyl-benzimidazol-5-yl]-2-(5-methylisoxazol-3-yl)but-3-yn-2-ol] | 0.32 nM
Cc1cc(C(C)(O)C#Cc2ccc3c(C(C)(O)C4CC4)nn(-c4ccnc(N)n4)c3c2)no1 (stereo not shown) [Example T1.1-6, 4-[1-(2-aminopyrimidin-4-yl)-3-(1-cyclopropyl-1-hydroxy-ethyl)indazol-6-yl]-2-(5-methylisoxazol-3-yl)but-3-yn-2-ol] | 0.32 nM

SMILES | Ki
Cc1nc([C@](C)(O)C#Cc2ccc3c(C(C)(C)O)nn(-c4ccnc(N)n4)c3c2)no1 [Example T1.1-7, (2R)-4-[1-(2-aminopyrimidin-4-yl)-3-(1-hydroxy-1-methyl-ethyl)indazol-6-yl]-2-(5-methyl-1,2,4-oxadiazol-3-yl) but-3-yn-2-ol] | 0.4 nM
Cc1nc([C@](C)(O)C#Cc2ccc3c(CF)nn(-c4ccnc(N)n4)c3c2)no1 [Example T1.1-8, (2R)-4-[1-(2-aminopyrimidin-4-yl)-3-(fluoromethyl)indazol-6-yl]-2-(5-methyl-1,2,4-oxadiazol-3-yl)but-3-yn-2-ol] | 0.5 nM
Cc1cc([C@](C)(O)C#Cc2ccc3c(C(C)(C)O)nn(-c4ccnc(N)n4)c3c2)no1 [Example T1.1-9, (2R)-4-[1-(2-aminopyrimidin-4-yl)-3-(1-hydroxy-1-methyl-ethyl)indazol-6-yl]-2-(5-methyl-isoxazol-3-yl)but-3-yn-2-ol] | 0.5 nM
Cc1cc([C@](C)(O)C#Cc2ccc3c(c2)n(-c2ccnc(N)n2)c(=O)n3C)no1 [Example T1.1-10, 3-(2-aminopyrimidin-4-yl)-5-[(3R)-3-hydroxy-3-(5-methylisoxazol-3-yl)but-1-ynyl]-1-methyl-benzimidazol-2-one] | 0.5 nM
Cc1nn(-c2ccnc(N)n2)c2cc(C#CC(C)(O)c3c[nH]cn3)ccc12 (stereo not shown) [Example T1.1-12, 4-[1-(2-aminopyrimidin-4-yl)-3-methyl-indazol-6-yl]-2-(1H-imidazol-4-yl)but-3-yn-2-ol] | 0.6 nM
Cc1cc(C(C)(O)C#Cc2ccc3nc(OCC(O)CO)n(-c4ccnc(N)n4)c3c2)no1 (stereo not shown) [Example T1.1-13, 3-[1-(2-aminopyrimidin-4-yl)-6-[3-hydroxy-3-(5-methylisoxazol-3-yl)but-1-ynyl]benzimidazol-2-yl]oxypropane-1,2-diol] | 0.6 nM
Cc1cc([C@](C)(O)C#Cc2ccc3c(C(=O)N4CCOCC4)nn(-c4ccnc(N)n4)c3c2)no1 [Example T1.1-14, [1-(2-aminopyrimidin-4-yl)-6-[(3R)-3-hydroxy-3-(5-methylisoxazol-3-yl)but-1-ynyl]indazol-3-yl]-morpholino-methanone] | 0.8 nM
CNC(=O)c1nn(-c2ccnc(N)n2)c2cc(C#C[C@@](C)(O)c3cc(C)on3)ccc12 [Example T1.1-15, 1-(2-aminopyrimidin-4-yl)-6-[(3R)-3-hydroxy-3-(5-methylisoxazol-3-yl)but-1-ynyl]-N-methyl-indazole-3-carboxamide] | 1 nM
Cc1nn(-c2ccnc(N)n2)c2cc(C#CC3(O)CCN(C)C3=O)ccc12 (stereo not shown) [Example T1.1-16, 3-[2-[1-(2-aminopyrimidin-4-yl)-3-methyl-indazol-6-yl]ethynyl]-3-hydroxy-1-methyl-pyrrolidin-2-one] | 1 nM
CCOc1nc2ccc(C#CC(C)(O)c3cc(CO)on3)cc2n1-c1ccnc(N)n1 (stereo not shown) [Example T1.1-17, 4-[3-(2-aminopyrimidin-4-yl)-2-ethoxy-benzimidazol-5-yl]-2-[5-(hydroxymethyl)isoxdazol-3-yl]but-3-yn-2-ol] | 1 nM
Cc1nn(-c2ccnc(N)n2)c2cc(C#CC(C)(O)c3cc(CF)on3)ccc12 (stereo not shown) [Example T1.1-19, 4-[1-(2-aminopyrimidin-4-yl)-3-methyl-indazol-6-yl]-2-[5-(fluoromethyl)isoxazol-3-yl]but-3-yn-2-ol] | 1 nM
Cc1cc([C@](C)(O)C#Cc2ccc3c(C(N)=O)nn(-c4ccnc(N)n4)c3c2)no1 [Example T1.1-20, 1-(2-aminopyrimidin-4-yl)-6-[(3R)-3-hydroxy-3-(5-methyl-isoxazol-3-yl)but-1-ynyl] indazole-3-carboxamide] | 1 nM
CC(O)(C#Cc1ccc2[nH]c(=O)n(-c3ccnc(N)n3)c2c1)c1cc(CO)on1 (stereo not shown) [Example T1.1-21, 3-(2-aminopyrimidin-4-yl)-5-[3-hydroxy-3-[5-(hydroxymethyl)isoxazol-3-yl]but-1-ynyl]-1H-benzimidazol-2-one] | 1 nM
Cn1c(=O)n(-c2ccnc(N)n2)c2cc(C#CC3(O)CCn4ccnc43)ccc21 (stereo not shown) [Example T1.1-22, 3-(2-aminopyrimidin-4-yl)-5-[2-(7-hydroxy-5,6-dihydropyrrolo[1,2-a]imidazol-7-yl)ethynyl]-1-methyl-benzimidazol-2-one] | 1 nM
Cc1nc([C@](C)(O)C#Cc2ccc3c(C(=O)N4CC(O)C4)nn(-c4nc(N)ncc4Cl)c3c2)no1 [Example T1.1-23, [1-(2-amino-5-chloro-pyrimidin-4-yl)-6-[(3R)-3-hydroxy-3-(5-methyl-1,2,4-oxadiazol-3-yl)but-1-ynyl]indazol-3-yl]-(3-hydroxy-azetidin-1-yl)methanone] | 1 nM
Cc1nc([C@](C)(O)C#Cc2ccc3c(C(=O)N4CCC(F)CC4)nn(-c4ccnc(N)n4)c3c2)no1 [Example T1.1-24, [1-(2-aminopyrimidin-4-yl)-6-[(3R)-3-hydroxy-3-(5-methyl-1,2,4-oxadiazol-3-yl)but-1-ynyl]indazol-3-yl]-(4-fluoro-1-piperidyl)methanone] | 1 nM
Cc1cc([C@](C)(O)C#Cc2ccc3nc(OC4COC4)n(-c4ccnc(N)n4)c3c2)no1 [Example T1.1-25, (2R)-4-[3-(2-aminopyrimidin-4-yl)-2-(oxetan-3-yloxy)benzimidazol-5-yl]-2-(5-methylisoxazol-3-yl) but-3-yn-2-ol] | 1 nM
